In patent US20110020436A1 (priority 2006, published 2011):

How the values were obtained:
COX-1 = details: macrophage cells; cited from earlier work
COX-2 = details: macrophage cells after exposure to LPS; cited from earlier work
paw swelling and edema = details: systemic melatonin after injection of a noxious stimulant; cited from earlier work
iNOS = details: macrophage cells after exposure to LPS; cited from earlier work
stressed skin flaps = details: animals with pineal glands removed, versus no melatonin; cited from earlier work
[1] = Sleepiness side effect in the case subjects; type: in vivo, human; details: topical application
Source text: This is probably due to either the local metabolism of melatonin or to the metabolism of melatonin in the liver, which is its primary site of metabolism (Slominski).

COc1ccc2[nH]cc(CCNC(C)=O)c2c1 [melatonin, N-acetyl-5-methoxytryptamine]
COX-1 function (COX-1): does not inhibit
activation of COX-2 (COX-2): inhibits the activation
swelling and edema of the paw (paw swelling and edema): reduction of swelling and edema
activation of iNOS (iNOS): inhibits the activation
levels of MDA and nitric oxide (stressed skin flaps): decreased levels
levels of glutathione (stressed skin flaps): increased levels
sleepiness [1]: no sleepiness
